Results on 28 compounds are retold here after patent US8859580B2 (Boehringer Ingelheim International GmbH, priority 2007, dated 2014).

Like-named read-outs stand apart in the source and are kept apart here.

As a reminder, the IC50 is the concentration that inhibits the measured activity by half.

The experiment deals with T1, 11β-HSD1 (Homo sapiens, UniProt P28845).
T1 construct: detecting cortisol generated from cortisterone by human liver microsomes; from tissue; host or cells: human liver microsomes
The experiment can be described thus: In vitro inhibition of 11β-HSD1, HTRF detection of cortisol generated from cortisone by human liver microsomes. The experiment is classed as biochemical. The following applies: 1 hour at 37° C., pH 6.0, NADPH 200 μM, cortisone 80 nM, inhibition relative to carbenoxolone signal. The protocol:
Cortisol generated in the reaction is then detected with a competitive immunoassay, involving two HTRF conjugates: cortisol linked to XL665 and anti-cortisol antibody labeled with Europium cryptate. The incubation period for detection reaction was typically 2 hours. […] The ratio of the two emission signals is then calculated (Em665*10000/Em615). […] Each assay also contained a calibration curve with cortisol to transform the fluorescent data into cortisol concentrations. Percent inhibition of each compound was determined relative to the carbenoxolone signal and IC50 curves were generated.
For orientation: Time-resolved FRET reads energy transfer from a long-lived donor to a nearby acceptor.

T1 sequence (P28845 whole entry): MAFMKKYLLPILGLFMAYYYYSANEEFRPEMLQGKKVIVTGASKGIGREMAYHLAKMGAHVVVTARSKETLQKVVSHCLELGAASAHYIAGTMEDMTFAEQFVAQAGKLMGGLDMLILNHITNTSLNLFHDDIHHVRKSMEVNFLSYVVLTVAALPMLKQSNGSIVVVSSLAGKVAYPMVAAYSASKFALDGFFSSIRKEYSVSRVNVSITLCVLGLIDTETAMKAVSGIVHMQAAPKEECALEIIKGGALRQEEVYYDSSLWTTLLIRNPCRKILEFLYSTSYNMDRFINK

Under “11β-HSD IC50 (nM)”, `C[C@H]1[C@H]2Cc3ccccc3[C@]1(C)CCN2C(=O)c1ccc2nc[nH]c2c1` (racemic) [Example 77, (3H-Benzoimidazol-5-yl)-(6,11-dimethyl-1,2,5,6-tetrahydro-4H-2,6-methano-benzo[d]azocin-3-yl)-methanone] displayed an IC50 of 144 nM. `CC1(C)[C@H]2Cc3ccccc3[C@]1(C)CCN2C(=O)c1ccc2nc[nH]c2c1` (racemic) [Example 82, (3H-Benzoimidazol-5-yl)-[(2R,6S)-6,11,11-trimethyl-1,2,5,6-tetrahydro-4H-2,6-methano-benzo[d]azocin-3-yl]-methanone] returned an IC50 (11β-HSD IC50 (nM)) of 56 nM. On the same count and under the same terms, as for `CC[C@@H]1[C@H]2Cc3ccc(O)cc3[C@]1(CC)CCN2C(=O)c1ccc2nc[nH]c2c1` (racemic) [Example 85, (3H-Benzoimidazol-5-yl)-(6,11-diethyl-8-hydroxy-1,2,5,6-tetrahydro-4H-2,6-methano-benzo[d]azocin-3-yl)-methanone], the figure is 89 nM; as for `CC[C@H]1[C@H]2Cc3ccc(O)cc3[C@]1(CC)CCN2C(=O)c1ccc2nc[nH]c2c1` (racemic) [Example 86, (3H-Benzoimidazol-5-yl)-(6,11-diethyl-8-hydroxy-1,2,5,6-tetrahydro-4H-2,6-methano-benzo[d]azocin-3-yl)-methanone], 2400 nM; as for `CC[C@]12CCN(C(=O)c3ccc4nc[nH]c4c3)[C@H](Cc3ccc(O)cc31)[C@@H]2C` (racemic) [Example 87, (3H-Benzoimidazol-5-yl)-(6-ethyl-8-hydroxy-11-methyl-1,2,5,6-tetrahydro-4H-2,6-methano-benzo[d]azocin-3-yl)-methanone], 622 nM. On the same count and under the same terms, for `CC[C@]12CCN(C(=O)c3ccc4nc[nH]c4c3)[C@H](Cc3ccc(O)cc31)[C@H]2C` (racemic) [Example 200, (3H-Benzoimidazol-5-yl)-(6-ethyl-8-hydroxy-11-methyl-1,2,5,6-tetrahydro-4H-2,6-methano-benzo[d]azocin-3-yl)-methanone] the value was 117 nM; for `C[C@@H]1C[C@]2(C)C[C@@H](Cc3ccccc32)N1C(=O)c1ccc2nc[nH]c2c1` (racemic) [Example 253, (3H-Benzoimidazol-5-yl)-(4,6-dimethyl 1,2,5,6-tetrahydro-4H-2,6-methano-benzo[d]azocin-3-yl)-methanone], 78 nM; for `C[C@@H]1CN(C(=O)c2ccc3nc[nH]c3c2)[C@@H]2Cc3ccccc3[C@@]1(C)C2` (racemic) [Example 294, (3H-Benzoimidazol-5-yl)-(5,6-dimethyl-1,2,5,6-tetrahydro-4H-2,6-methano-benzo[d]azocin-3-yl)-methanone], 146 nM. For the compound `O=C(c1ccc2nc[nH]c2c1)N1CC[C@@H]2C[C@H]1Cc1cccnc12` (racemic) [Example 325, (3H-Benzoimidazol-5-yl)-(5,8,9,10-tetrahydro-6H-6,10-methano-pyrido[3,2-d]azocin-7-yl)-methanone], the IC50 (read-out: 11β-HSD IC50) is 771 nM. Regarding `COc1cc2c(cc1C)C[C@@H]1N(C(=O)c3ccc4nc[nH]c4c3)CC[C@@]2(C)C1(C)C` (stereo in doubt) [Example 61, (3H-Benzoimidazol-5-yl)-[(2S,6R)-8-methoxy-6,9,11,11-tetramethyl-1,2,5,6-tetrahydro-4H-2,6-methano-benzo[d]azocin-3-yl]-methanone], half-maximal inhibition (11β-HSD IC50 (nM)) (IC50) required 798 nM. On the same count and under the same terms, for `COc1cc2c(cc1C)C[C@H]1N(C(=O)c3ccc4nc[nH]c4c3)CC[C@]2(C)C1(C)C` (stereo in doubt) [Example 62, (3H-Benzoimidazol-5-yl)-[(2R,6S)-8-methoxy-6,9,11,11-tetramethyl-1,2,5,6-tetrahydro-4H-2,6-methano-benzo[d]azocin-3-yl]-methanone] the value was 109 nM; for `COc1cc2c(cc1C)[C@]1(C)CCN(C(=O)c3ccc4nc[nH]c4c3)[C@H](C2)C1(C)C` (stereo in doubt) [Example 63, (3H-Benzoimidazol-5-yl)-[(2R,6S)-9-methoxy-6,8,11,11-tetramethyl-1,2,5,6-tetrahydro-4H-2,6-methano-benzo[d]azocin-3-yl]-methanone], 216 nM; for `COc1cc2c(cc1C)[C@@]1(C)CCN(C(=O)c3ccc4nc[nH]c4c3)[C@@H](C2)C1(C)C` (stereo in doubt) [Example 64, (3H-Benzoimidazol-5-yl)-[(2S,6R)-9-methoxy-6,8,11,11-tetramethyl-1,2,5,6-tetrahydro-4H-2,6-methano-benzo[d]azocin-3-yl]-methanone], 753 nM. Still for that read-out and setting: as for `Cc1cc2c(cc1O)[C@]1(C)CCN(C(=O)c3ccc4nc[nH]c4c3)[C@H](C2)C1(C)C` (stereo in doubt) [Example 65, (3H-Benzoimidazol-5-yl)-[(2R,6S)-8-hydroxy-6,9,11,11-tetramethyl-1,2,5,6-tetrahydro-4H-2,6-methano-benzo[d]azocin-3-yl]-methanone], the figure is 29 nM; as for `Cc1cc2c(cc1O)[C@@]1(C)CCN(C(=O)c3ccc4nc[nH]c4c3)[C@@H](C2)C1(C)C` (stereo in doubt) [Example 66, (3H-Benzoimidazol-5-yl)-[(2S,6R)-8-hydroxy-6,9,11,11-tetramethyl-1,2,5,6-tetrahydro-4H-2,6-methano-benzo[d]azocin-3-yl]-methanone], 822 nM; as for `Cc1cc2c(cc1O)C[C@H]1N(C(=O)c3ccc4nc[nH]c4c3)CC[C@]2(C)C1(C)C` (stereo in doubt) [Example 67, (3H-Benzoimidazol-5-yl)-[(2R,6S)-9-hydroxy-6,8,11,11-tetramethyl-1,2,5,6-tetrahydro-4H-2,6-methano-benzo[d]azocin-a 3-yl]-methanone], 32 nM. Same read-out and setting: as for `Cc1cc2c(cc1O)C[C@@H]1N(C(=O)c3ccc4nc[nH]c4c3)CC[C@@]2(C)C1(C)C` (stereo in doubt) [Example 68, (3H-Benzoimidazol-5-yl)-[(2S,6R)-9-hydroxy-6,8,11,11-tetramethyl-1,2,5,6-tetrahydro-4H-2,6-methano-benzo[d]azocin-3-yl]-methanone], the figure is 372 nM; as for `CC1(C)[C@H]2Cc3c(O)cccc3[C@]1(C)CCN2C(=O)c1ccccc1` [Example 1, [(2R,6S)-10-Hydroxy-6,11,11-trimethyl-1,2,5,6-tetrahydro-4H-2,6-methano-benzo[d]azocin-3-yl]-phenyl-methanone], 285 nM; as for `CC1(C)[C@H]2Cc3c(O)cccc3[C@]1(C)CCN2C(=O)c1ccccc1Cl` [Example 2, (2-Chloro-phenyl)-[(2R,6S)-10-hydroxy-6,11,11-trimethyl-1,2,5,6-tetrahydro-4H-2,6-methano-benzo[d]azocin-3-yl]-methanone], 741 nM. Consider `CC1(C)[C@H]2Cc3c(O)cccc3[C@]1(C)CCN2C(=O)c1ccc(C(N)=O)cc1` [Example 3, 4-[(2R,6S)-10-Hydroxy-6,11,11-trimethyl-1,2,5,6-tetrahydro-4H-2,6-methano-benzo[d]azocine-3-carbonyl]benzamide], for which, for the setting “11β-HSD IC50 (nM)”, the IC50 turned out to be 85 nM.

On to `CC1(C)[C@H]2Cc3c(O)cccc3[C@]1(C)CCN2C(=O)c1ccc2nc[nH]c2c1` [Example 4, (3H-Benzoimidazol-5-yl)-[(2R,6S)-10-hydroxy-6,11,11-trimethyl-1,2,5,6-tetrahydro-4H-2,6-methano-benzo[d]azocin-3-yl]-methanone], for which the IC50 (11β-HSD IC50 (nM)) turned out to be 56 nM.

For the setting “11β-HSD IC50 (nM)”, `Cc1ccccc1C(=O)N1CC[C@@]2(C)c3cccc(O)c3C[C@@H]1C2(C)C` [Example 5, [(2R,6S)-10-Hydroxy-6,11,11-trimethyl-1,2,5,6-tetrahydro-4H-2,6-methano-benzo[d]azocin-3-yl]-o-tolyl-methanone] showed an IC50 of 3100 nM.

With `COc1ccccc1C(=O)N1CC[C@@]2(C)c3cccc(O)c3C[C@@H]1C2(C)C` [Example 6, [(2R,6S)-10-Hydroxy-6,11,11-trimethyl-1,2,5,6-tetrahydro-4H-2,6-methano-benzo[d]azocin-3-yl)-(2-methoxy-phenyl]-methanone], half-maximal inhibition (11β-HSD IC50 (nM)) (IC50) was put at 1060 nM. On the same count and under the same terms, for `Cc1cccc(C(=O)N2CC[C@@]3(C)c4cccc(O)c4C[C@@H]2C3(C)C)c1` [Example 7, [(2R,6S)-10-Hydroxy-6,11,11-trimethyl-1,2,5,6-tetrahydro-4H-2,6-methano-benzo[d]azocin-3-yl]-m-tolyl-methanone] the value was 262 nM; for `CC1(C)[C@H]2Cc3c(O)cccc3[C@]1(C)CCN2C(=O)c1ccccc1C#N` [Example 8, 2-[(2R,6S)-10-Hydroxy-6,11,11-trimethyl-1,2,5,6-tetrahydro-4H-2,6-methano-benzo[d]azocine-3-carbonyl]-benzonitrile], 3360 nM.

`CC(=O)Nc1cccc(C(=O)N2CC[C@@]3(C)c4cccc(O)c4C[C@@H]2C3(C)C)c1` [Example 9, N-{3-[(2R,6S)-10-Hydroxy-6,11,11-trimethyl-1,2,5,6-tetrahydro-4H-2,6-methano-benzo[d]azocine-3-carbonyl]-phenyl}-acetamide] had a half-maximal inhibitory concentration (IC50) (11β-HSD IC50 (nM)) of 1980 nM. Still for that read-out and setting: as for `CC1(C)[C@H]2Cc3c(O)cccc3[C@]1(C)CCN2C(=O)c1cccc(C#N)c1` [Example 10, 3-[(2R,6S)-10-Hydroxy-6,11,11-trimethyl-1,2,5,6-tetrahydro-4H-2,6-methano-benzo[d]azocine-3-carbonyl]-benzonitrile], the figure is 1780 nM; as for `COc1cccc(C(=O)N2CC[C@@]3(C)c4cccc(O)c4C[C@@H]2C3(C)C)c1` [Example 11, [(2R,6S)-10-Hydroxy-6,11,11-trimethyl-1,2,5,6-tetrahydro-4H-2,6-methano-benzo[d]azocin-3-yl]-(3-methoxy-phenyl)-methanone], 530 nM.
